Reference: patent publication US20130041142A1, “HUMAN SWEET TASTE RECEPTOR-ACTING SWEET TASTE REGULATING SUBSTANCE TO SWEET TASTE SUBSTANCE” (priority 2009, published 2013)
Peptide text beside a SMILES is read from it.

Biological target: T1, human sweet taste receptor (hT1R2+hT1R3) (Homo sapiens, UniProt Q7RTX0+Q8TE23)
T1 construct: includes all portions of respective subunits, that is, all regions of a transmembrane domain; pcDNA5/FRT construct co-transfected with pOG44
T1 sequence (Q8TE23 20-839): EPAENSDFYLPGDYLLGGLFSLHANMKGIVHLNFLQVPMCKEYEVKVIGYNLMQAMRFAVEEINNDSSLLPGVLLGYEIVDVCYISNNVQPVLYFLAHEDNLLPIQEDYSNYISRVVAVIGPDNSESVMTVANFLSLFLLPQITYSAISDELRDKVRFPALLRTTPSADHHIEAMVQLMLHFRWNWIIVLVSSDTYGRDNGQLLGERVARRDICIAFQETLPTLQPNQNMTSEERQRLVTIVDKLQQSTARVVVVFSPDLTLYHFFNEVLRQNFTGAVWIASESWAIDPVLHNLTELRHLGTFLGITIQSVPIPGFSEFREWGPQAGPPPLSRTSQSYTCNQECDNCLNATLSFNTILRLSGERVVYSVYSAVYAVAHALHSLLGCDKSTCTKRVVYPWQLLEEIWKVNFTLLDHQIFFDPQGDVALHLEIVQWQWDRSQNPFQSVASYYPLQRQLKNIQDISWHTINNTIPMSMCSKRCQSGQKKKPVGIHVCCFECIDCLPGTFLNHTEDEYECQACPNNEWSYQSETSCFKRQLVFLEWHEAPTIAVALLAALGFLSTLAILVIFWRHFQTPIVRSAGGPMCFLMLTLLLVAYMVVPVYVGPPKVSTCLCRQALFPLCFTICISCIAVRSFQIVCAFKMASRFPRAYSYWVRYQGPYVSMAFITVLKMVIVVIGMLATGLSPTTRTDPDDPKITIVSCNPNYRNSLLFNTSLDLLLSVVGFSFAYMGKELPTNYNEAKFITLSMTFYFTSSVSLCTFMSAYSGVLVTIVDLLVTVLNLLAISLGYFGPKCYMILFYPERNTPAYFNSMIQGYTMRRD
T1 sequence (Q7RTX0 21-852): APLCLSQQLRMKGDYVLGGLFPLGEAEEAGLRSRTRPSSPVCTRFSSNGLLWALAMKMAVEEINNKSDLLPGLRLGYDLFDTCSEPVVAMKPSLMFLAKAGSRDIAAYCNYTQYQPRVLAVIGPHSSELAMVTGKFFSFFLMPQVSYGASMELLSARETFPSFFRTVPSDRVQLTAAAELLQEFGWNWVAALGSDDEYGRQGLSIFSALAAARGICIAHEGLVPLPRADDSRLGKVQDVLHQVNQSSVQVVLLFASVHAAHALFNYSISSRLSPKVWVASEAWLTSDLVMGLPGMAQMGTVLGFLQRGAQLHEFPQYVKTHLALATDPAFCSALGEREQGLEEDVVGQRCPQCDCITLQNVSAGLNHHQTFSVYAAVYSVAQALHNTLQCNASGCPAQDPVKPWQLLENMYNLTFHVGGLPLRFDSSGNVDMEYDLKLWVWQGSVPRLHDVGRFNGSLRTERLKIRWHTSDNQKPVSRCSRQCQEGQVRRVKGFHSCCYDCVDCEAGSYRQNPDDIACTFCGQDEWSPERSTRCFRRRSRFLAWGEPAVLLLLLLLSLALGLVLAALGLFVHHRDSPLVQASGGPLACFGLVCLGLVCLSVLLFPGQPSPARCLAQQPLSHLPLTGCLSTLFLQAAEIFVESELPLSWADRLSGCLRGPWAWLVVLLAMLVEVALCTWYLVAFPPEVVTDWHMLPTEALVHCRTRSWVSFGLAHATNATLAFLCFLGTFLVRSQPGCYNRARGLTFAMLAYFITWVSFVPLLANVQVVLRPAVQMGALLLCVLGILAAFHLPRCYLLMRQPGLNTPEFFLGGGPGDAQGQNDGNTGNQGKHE
Test: automated fluorescent calcium imaging (Fluo-4 AM, FlexStation 3) of sweet taste receptor-expressing cells
Format: cell-based
Conditions: for Change amount in fluorescent intensity (ΔF): 27° C., to 100 seconds
Description: After cultured at 37° C. for 24 hours, the medium was removed, and replaced with 50 μl of a HEPES buffer, and […] of a HEPES buffer containing a fluorescent calcium indicator (Fluo-4 AM attached to Molecular Devices, FLIPR Ca 4 Assay Kit) was further added. Then, this was incubated at 27° C. for 45 minutes to prepare a cell to be subjected to automated fluorescent imaging. […]
In the same manner as that described above, […] subjected to automated fluorescent imaging, so that a final concentration of sucrose became a concentration described in Table 2, a HEPES buffer containing conc. neohesperidin dihydrochalcone was further added so that a final concentration of neohesperidin dihydrochalcone became 2 v/v %, stimulation was performed at 27° C., a fluorescent reaction (excitation at 485 nm, fluorescence at 525 nm) from immediately after addition of the solution to after 100 seconds was measured by using FlexStation 3 (Molecular Devices), and a response of a sweet taste receptor-expressing cell when neohesperidin dihydrochalcone was added to sucrose was quantitated. The vertical axis of FIG. 3 is a maximum (ΔF) of a change amount in a fluorescent intensity between immediately after stimulation and after 100 seconds from stimulation, that is, a response intensity of a cell, and the horizontal axis indicates a sucrose concentration (mM) as expressed by logarithm.

O=C1NS(=O)(=O)c2ccccc21 [Saccharin, saccharin]
Change amount in fluorescent intensity (ΔF) (saccharin 0.167 mM alone): 7.609
Change amount in fluorescent intensity (ΔF) (saccharin 0.333 mM alone): 22.936
Change amount in fluorescent intensity (ΔF) (saccharin 0.667 mM alone): 56.59
Change amount in fluorescent intensity (ΔF) (saccharin 2 mM alone): 86.194

OC[C@H]1O[C@@](CO)(O[C@H]2O[C@H](CO)[C@@H](O)[C@H](O)[C@H]2O)[C@@H](O)[C@@H]1O [Sucrose, sucrose]
Change amount in fluorescent intensity (ΔF) (sucrose 3.125 mM alone): 4.2
Change amount in fluorescent intensity (ΔF) (sucrose 6.25 mM alone): 4.6
Change amount in fluorescent intensity (ΔF) (sucrose 12.5 mM alone): 4.1
Change amount in fluorescent intensity (ΔF) (sucrose 25 mM alone): 5.7
Change amount in fluorescent intensity (ΔF) (sucrose 50 mM alone): 9.2
Change amount in fluorescent intensity (ΔF) (sucrose 100 mM alone): 23.3
Change amount in fluorescent intensity (ΔF) (sucrose 200 mM alone): 34.9
concentration below which a response of a sweet taste receptor cell is not observed (sucrose alone): around 50 mM

COC(=O)[C@H](Cc1ccccc1)NC(=O)[C@@H](N)CC(=O)O [Aspartame, aspartame] (H-Asp-Phe-OMe)
Change amount in fluorescent intensity (ΔF) (aspartame 0.167 mM alone): 6.568
Change amount in fluorescent intensity (ΔF) (aspartame 0.333 mM alone): 12.578
Change amount in fluorescent intensity (ΔF) (aspartame 0.667 mM alone): 33
Change amount in fluorescent intensity (ΔF) (aspartame 2 mM alone): 72.005
